The values below come from ChEMBL document CHEMBL3045945, “INHIBITORS OF FILARIAL GAMMA-GLUTAMYL CYCLE ENZYMES AS POSSIBLE MACROFILARICIDAL AGENTS” (Med Chem Res, 2004).

Where a name gives a salt, the structure may show the parent alone. Calls of active or inactive are those of the source. No cut-off for these calls is given here.

The subject of one experiment is Setaria cervi. As to the kind of experiment: Antifilarial activity against Setaria cervi assessed as change in GSH level at 250 uM after 6 hr by RP-HPLC analysis. The class given is functional.
In experiment [1] the target is Glutathione hydrolase 1 proenzyme (Rattus norvegicus, UniProt P07314). The experiment can be described thus: Inhibition of Rattus norvegicus Wistar (rat) rat Gamma-glutamyltranspeptidase using L-gamma-glutamyl-p-nitroanilide as substrate incubated for 15 min prior to substrate addition by spectrophotometric analysis.
Glutathione hydrolase 1 proenzyme, sequence (P07314 1-379 limits assumed): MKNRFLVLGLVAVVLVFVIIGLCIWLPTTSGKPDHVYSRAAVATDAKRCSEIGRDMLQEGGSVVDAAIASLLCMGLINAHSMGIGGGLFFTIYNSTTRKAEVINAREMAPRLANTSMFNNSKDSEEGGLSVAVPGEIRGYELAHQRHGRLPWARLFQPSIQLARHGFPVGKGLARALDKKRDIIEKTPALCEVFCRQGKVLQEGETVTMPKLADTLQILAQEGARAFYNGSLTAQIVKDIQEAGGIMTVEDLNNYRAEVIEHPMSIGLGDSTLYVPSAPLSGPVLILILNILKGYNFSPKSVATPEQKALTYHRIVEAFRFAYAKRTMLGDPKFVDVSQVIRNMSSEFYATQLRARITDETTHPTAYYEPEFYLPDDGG
Glutathione hydrolase 1 proenzyme, sequence (P07314 380-568 limits assumed): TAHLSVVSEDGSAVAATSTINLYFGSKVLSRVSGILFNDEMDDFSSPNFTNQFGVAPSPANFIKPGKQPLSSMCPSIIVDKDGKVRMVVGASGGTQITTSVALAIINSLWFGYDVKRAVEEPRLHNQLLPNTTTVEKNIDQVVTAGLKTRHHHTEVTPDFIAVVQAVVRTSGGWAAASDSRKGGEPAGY

As for `CCOC(=O)CC(NCCCCCCCNC(CC(=O)OCC)[C@H]1O[C@@H]2OC(C)(C)OC2[C@H]1OCc1ccccc1)C1OC2OC(C)(C)O[C@H]2[C@@H]1OCc1ccccc1` (single isomer, unassigned), the Activity with Setaria cervi is 15.9%.
`N[C@@H](CO)C(=O)O` [SERINE]: the Ki in experiment [1] worked out at 50 µM. This counts as double-digit micromolar.
For the compound `CCOC(=O)CC(NCCCCCCCCCCCCNC(CC(=O)OCC)[C@@H]1O[C@H]2OC(C)(C)O[C@H]2[C@@H]1OCc1ccccc1)[C@H]1O[C@@H]2OC(C)(C)O[C@@H]2[C@H]1OCc1ccccc1` (some centres not stated), the Activity in the experiment with Setaria cervi was 67%.
For the compound `CO[C@@H]1[C@H]2OC(C)(C)O[C@H]2O[C@@H]1CNCCCCCCCCCCNC[C@@H]1O[C@H]2OC(C)(C)O[C@H]2[C@@H]1OC`, the Activity in the experiment with Setaria cervi is recorded as 33.14%.
Turning to `CCOC(=O)CC(NCCCCCCCCCCCCNC(CC(=O)OCC)[C@@H]1O[C@H]2OC(C)(C)O[C@H]2[C@@H]1OC)[C@H]1O[C@@H]2OC(C)(C)O[C@@H]2[C@H]1OC` (stereo in doubt), the Activity with Setaria cervi was 37.43%.
On the same count and under the same terms, the result for `CCOC(=O)CC(NCCCNC(CC(=O)OCC)[C@@H]1O[C@H]2OC(C)(C)O[C@H]2[C@@H]1OC)[C@H]1O[C@@H]2OC(C)(C)O[C@@H]2[C@H]1OC` (some centres not stated) reads 14.55%; that for `CCOC(=O)CC(NCCCCCCCCCCNC(CC(=O)OCC)[C@@H]1O[C@H]2OC(C)(C)O[C@H]2[C@@H]1OCc1ccccc1)[C@H]1O[C@@H]2OC(C)(C)O[C@@H]2[C@H]1OCc1ccccc1` (some centres not stated), 58.17%; that for `Cc1cc(=O)oc2cc(OCC(=O)NCCCCCCCCCCCCN)ccc12`, 3.22%.
Still for that read-out and setting: as for `CCOC(=O)CC(NCCCNC(CC(=O)OCC)[C@@H]1O[C@H]2OC(C)(C)O[C@H]2[C@@H]1OCc1ccccc1)C1O[C@@H]2OC(C)(C)OC2[C@H]1OCc1ccccc1` (single isomer, unassigned), the figure is 59.12%; as for `CN(C)c1ccc2nc3ccc(N(C)C)cc3[s+]c2c1.[Cl-]` [METHYLENE BLUE ANHYDROUS], 34.68%.
The same measure, in the same setting: as for `CC(C)=CC(=O)C=C(C)C` [PHORONE], the figure is 93.7%; as for `COC(=O)/C=C\C(=O)OC` [DIMETHYL MALEATE], 95.82%.
For `CC1(C)O[C@@H]2O[C@@H](CNCCCCCCCCCCCCNC[C@H]3O[C@@H]4OC(C)(C)O[C@@H]4[C@H]3OCc3ccccc3)[C@@H](OCc3ccccc3)[C@@H]2O1`, the Activity with Setaria cervi worked out at 60%.
Same read-out and setting: as for `CC1(C)O[C@@H]2O[C@@H](CNCCCCCCCNC[C@H]3O[C@@H]4OC(C)(C)O[C@@H]4[C@H]3OCc3ccccc3)[C@@H](OCc3ccccc3)[C@@H]2O1`, the figure is 69.29%; as for `CCCc1cc(=O)oc2cc(OCC(=O)OCC)ccc12`, 5.75%.
On the same count and under the same terms, as for `Cc1cc(=O)oc2cc(OCC(=O)NC3CCCCC3)ccc12`, the figure is 46%; as for `CCCCS(=N)(=O)CC[C@H](N)C(=O)O` (some centres not stated) [BUTHIONINE SULFOXIME], 35.78%.
Still for that read-out and setting: as for `O=NN(CCCl)C(=O)NCCCl` [CARMUSTINE], the figure is 68.97%; as for `CC1=CC(=O)c2ccccc2C1=O` [MENADIONE], 96.04%.
With `Cc1cc2oc(=O)cc(C)c2cc1C`, the Activity with Setaria cervi came to 42.07%.
Turning to `Cc1cc(C)c2c(C)cc(=O)oc2c1`, the Activity with Setaria cervi is 65%.
The same measure, in the same setting: as for `CO[C@@H]1[C@H]2OC(C)(C)O[C@H]2O[C@@H]1CNCCCCCCCCCCCCNC[C@@H]1O[C@H]2OC(C)(C)O[C@H]2[C@@H]1OC` (stereo in doubt), the figure is 39%.
Still for that read-out and setting: the result for `CC1(C)O[C@@H]2O[C@@H](CNCCCCCCCCCCNC[C@H]3O[C@@H]4OC(C)(C)O[C@@H]4[C@H]3OCc3ccccc3)[C@@H](OCc3ccccc3)[C@@H]2O1` reads 52.5%.
On the same count and under the same terms, the result for `CCOC(=O)CC(NCCCCCCCCCCNC(CC(=O)OCC)[C@@H]1O[C@H]2OC(C)(C)O[C@H]2[C@@H]1OC)[C@H]1O[C@@H]2OC(C)(C)O[C@@H]2[C@H]1OC` (some centres not stated) reads 48%.
Regarding `CO[C@H]1[C@@H](CNCCCCCCCNC[C@@H]2O[C@H]3OC(C)(C)OC3[C@@H]2OC)OC2OC(C)(C)O[C@@H]21` (single isomer, unassigned), the Activity in the experiment with Setaria cervi is reported as 52.54%.
The same measure, in the same setting: as for `CCOC(=O)CC(NCCCCCCCNC(CC(=O)OCC)[C@@H]1O[C@H]2OC(C)(C)O[C@H]2[C@@H]1OC)[C@H]1O[C@@H]2OC(C)(C)O[C@@H]2[C@H]1OC` (some centres not stated), the figure is 39.04%; as for `CCCCCCCCCCCCCC(=O)Oc1ccc2c(C)cc(=O)oc2c1`, “inactive”.
